Measurements taken from US7189758B2, “Glucocorticoid mimetics, methods of making them, pharmaceutical formulations, and uses thereof” (Boehringer Ingelheim Pharmaceuticals, Inc., priority 2002, dated 2007).

Biological target: T1, human glucocorticoid receptor (GR) complex (Homo sapiens, UniProt P04150)
T1 construct: made in house; host or cells: insect cells (baculovirus expression), used as crude lysate
T1 sequence (P04150 1-777): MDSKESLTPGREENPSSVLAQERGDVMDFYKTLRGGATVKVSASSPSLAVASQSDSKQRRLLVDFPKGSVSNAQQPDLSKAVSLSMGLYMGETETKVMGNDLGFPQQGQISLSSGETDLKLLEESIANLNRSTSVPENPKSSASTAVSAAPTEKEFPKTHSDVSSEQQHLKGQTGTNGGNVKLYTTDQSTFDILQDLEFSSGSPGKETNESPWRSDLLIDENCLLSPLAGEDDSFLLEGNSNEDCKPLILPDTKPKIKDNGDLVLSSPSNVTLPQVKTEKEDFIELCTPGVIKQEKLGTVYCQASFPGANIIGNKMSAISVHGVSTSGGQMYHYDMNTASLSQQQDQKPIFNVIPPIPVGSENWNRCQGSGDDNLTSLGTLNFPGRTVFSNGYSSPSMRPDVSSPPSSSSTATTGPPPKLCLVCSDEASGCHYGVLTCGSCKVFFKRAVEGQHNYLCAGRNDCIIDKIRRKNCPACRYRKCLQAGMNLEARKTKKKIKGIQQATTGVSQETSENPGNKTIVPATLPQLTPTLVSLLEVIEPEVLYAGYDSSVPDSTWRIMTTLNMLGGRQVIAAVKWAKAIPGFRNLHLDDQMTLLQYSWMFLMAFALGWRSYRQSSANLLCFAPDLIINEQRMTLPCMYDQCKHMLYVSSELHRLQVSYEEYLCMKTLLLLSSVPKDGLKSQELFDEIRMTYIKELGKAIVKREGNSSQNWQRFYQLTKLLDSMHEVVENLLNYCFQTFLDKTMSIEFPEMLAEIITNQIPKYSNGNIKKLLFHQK
Assay: Glucocorticoid receptor competitive binding assay (fluorescence polarization, TAMRA-labeled dexamethasone probe)
Settings: result in words only; IC50 values not given
Method: Compounds of the invention were evaluated for binding to the steroid receptor by a fluorescence polarization competitive binding assay.
A. Glucocorticoid Receptor Competitive Binding Assay
Step 1. Characterization of the Fluorescent Probe
The wavelengths for maximum excitation and emission of the fluorescent probe should first be measured. An example of such a probe is rhodamine (TAMRA)-labeled dexamethasone.
The affinity of the probe for the steroid receptor was then determined in a titration experiment. The fluorescence polarization value of the probe in assay buffer was measured on an SLM-8100 fluorometer using the excitation and emission maximum values described above. Aliquots of expression vector lysate were added and fluorescence polarization was measured after each addition until no further change in polarization value was observed. Non-linear least squares regression analysis was used to calculate the dissociation constant of the probe from the polarization values obtained for lysate binding to the probe.
Step 2. Screening for Inhibitors of Probe Binding
This assay uses fluorescence polarization (FP) to quantitate the ability of test compounds to compete with tetramethyl rhodamine (TAMRA)-labeled dexamethasone for binding to a human glucocorticoid receptor (GR) complex prepared from an insect expression system. The assay buffer was: 10 mM TES, 50 mM KCl, 20 mM Na2MoO4.2H2O, 1.5 mM EDTA, 0.04% w/v CHAPS, 10% v/v glycerol, 1 mM dithiothreitol, pH 7.4. Test compounds were dissolved to 1 mM in neat DMSO and then further diluted to 10× assay concentration in assay buffer supplemented with 10% v/v DMSO. Test compounds were serially diluted at 10× assay concentrations in 10% DMSO-containing buffer in 96-well polypropylene plates. Binding reaction mixtures were prepared in 96-well black Dynex microtiter plates by sequential addition of the following assay components to each well: 15 μL of 10× test compound solution, 85 μL of GR-containing baculovirus lysate diluted 1:170 in assay buffer, and 50 μL of 15 nM TAMRA-labeled dexamethasone. Positive controls were reaction mixtures containing no test compound; negative controls (blanks) were reaction mixtures containing 0.7 μM to 2 μM dexamethasone. […] IC50 values were determined by iterative non-linear curve fitting of the FP signal data to a 4-parameter logistic equation.

Activity in the GR binding assay, potent activity:
CC(C)(CC(O)(Cc1ccccc1Br)C(=O)Nc1ccc2c(c1)COC2=O)c1cc(F)ccc1O (stereo not shown) [2-(2-Bromobenzyl)-4-(5-fluoro-2-hydroxyphenyl)-2-hydroxy-4-methylpentanoic acid (1-oxo-1,3-dihydroisobenzofuran-5-yl)amide]
COc1ccc(F)cc1C(C)(C)CC(O)(Cc1ccccc1Br)C(=O)Nc1ccc2c(c1)COC2=O (stereo not shown) [2-(2-Bromobenzyl)-4-(5-fluoro-2-methoxyphenyl)-2-hydroxy-4-methylpentanoic acid (1-oxo-1,3-dihydroisobenzofuran-5-yl)amide]
CC(C)(CC(O)(Cc1ccccc1Cl)C(=O)Nc1ccc2c(c1)COC2=O)c1cc(F)ccc1O (stereo not shown) [2-(2-Chlorobenzyl)-4-(5-fluoro-2-hydroxyphenyl)-2-hydroxy-4-methylpentanoic acid (1-oxo-1,3-dihydroisobenzofuran-5-yl)amide]
COc1ccc(F)cc1C(C)(C)CC(O)(Cc1ccccc1Cl)C(=O)Nc1ccc2c(c1)COC2=O (stereo not shown) [2-(2-Chlorobenzyl)-4-(5-fluoro-2-methoxyphenyl)-2-hydroxy-4-methylpentanoic acid (1-oxo-1,3-dihydroisobenzofuran-5-yl)amide]
CC(C)(CC(O)(Cc1ccccc1F)C(=O)Nc1ccc2c(c1)COC2=O)c1cc(F)ccc1O (stereo not shown) [2-(2-Fluorobenzyl)-4-(5-fluoro-2-hydroxyphenyl)-2-hydroxy-4-methylpentanoic acid (1-oxo-1,3-dihydroisobenzofuran-5-yl)amide]
COc1ccc(F)cc1C(C)(C)CC(O)(Cc1ccccc1F)C(=O)Nc1ccc2c(c1)COC2=O (stereo not shown) [2-(2-Fluorobenzyl)-4-(5-fluoro-2-methoxyphenyl)-2-hydroxy-4-methylpentanoic acid (1-oxo-1,3-dihydroisobenzofuran-5-yl)amide]
CC(C)(CC(O)(Cc1ccc(F)c(F)c1)C(=O)Nc1ccc2c(c1)COC2=O)c1cc(F)ccc1O (stereo not shown) [2-(3,4-Difluorobenzyl)-4-(5-fluoro-2-hydroxyphenyl)-2-hydroxy-4-methylpentanoic acid (1-oxo-1,3-dihydroisobenzofuran-5-yl)amide]
COc1ccc(F)cc1C(C)(C)CC(O)(Cc1cccc(F)c1)C(=O)Nc1ccc2c(c1)COC2=O (stereo not shown) [2-(3-Fluorobenzyl)-4-(5-fluoro-2-methoxyphenyl)-2-hydroxy-4-methylpentanoic acid (1-oxo-1,3-dihydroisobenzofuran-5-yl)amide]
CC(C)(CC(O)(Cc1ccc(F)cc1)C(=O)Nc1ccc2c(c1)COC2=O)c1cc(F)ccc1O (stereo not shown) [2-(4-Fluorobenzyl)-4-(5-fluoro-2-hydroxyphenyl)-2-hydroxy-4-methylpentanoic acid (1-oxo-1,3-dihydroisobenzofuran-5-yl)amide]
Cc1noc(=O)c2ccc(NC(=O)C(O)(Cc3ccccc3)CC(C)(C)c3cc(F)ccc3O)cc12 (stereo not shown) [2-Benzyl-4-(5-fluoro-2-hydroxyphenyl)-2-hydroxy-4-methylpentanoic acid (4-methyl-1-oxo-1H-benzo[d][1,2]oxazin-6-yl)amide]
COc1ccc(F)cc1C(C)(C)CC(O)(Cc1ccccc1)C(=O)Nc1ccc2c(c1)COC2=O (stereo not shown) [2-Benzyl-4-(5-fluoro-2-methoxyphenyl)-2-hydroxy-4-methylpentanoic acid (1-oxo-1,3-dihydroisobenzofuran-5-yl)amide]
COc1ccc(F)cc1C(C)(C)CC(O)(Cc1ccccc1)C(=O)Nc1ccc2c(=O)onc(C)c2c1 (stereo not shown) [2-Benzyl-4-(5-fluoro-2-methoxyphenyl)-2-hydroxy-4-methylpentanoic acid (4-methyl-1-oxo-1H-benzo[d][1,2]oxazin-6-yl)amide]
Cc1noc(=O)c2ccc(NC(=O)C(O)(CC3CCCCC3)CC(C)(C)c3ccccc3)cc12 (stereo not shown) [2-Cyclohexylmethyl-2-hydroxy-4-methyl-4-phenylpentanoic acid (4-methyl-1-oxo-1H-benzo[d][1,2]oxazin-6-yl)amide]
CC(C)(CC(O)(CC1CCCCC1)C(=O)Nc1ccc2c(c1)COC2=O)c1cc(F)ccc1O (stereo not shown) [2-Cyclohexylmethyl-4-(5-fluoro-2-hydroxyphenyl)-2-hydroxy-4-methylpentanoic acid (1-oxo-1,3-dihydroisobenzofuran-5-yl)amide]
COc1ccc(F)cc1C(C)(C)CC(O)(CC1CCCCC1)C(=O)Nc1ccc2c(c1)COC2=O (stereo not shown) [2-Cyclohexylmethyl-4-(5-fluoro-2-methoxyphenyl)-2-hydroxy-4-methylpentanoic acid (1-oxo-1,3-dihydroisobenzofuran-5-yl)amide]
COc1ccc(F)cc1C(C)(C)CC(O)(CC1CCCCC1)C(=O)Nc1ccc2c(=O)onc(C)c2c1 (stereo not shown) [2-Cyclohexylmethyl-4-(5-fluoro-2-methoxyphenyl)-2-hydroxy-4-methylpentanoic acid (4-methyl-1-oxo-1H-benzo[d][1,2]oxazin-6-yl)amide]
CC(C)(CC(O)(C(=O)Nc1ccc2c(c1)COC2=O)C1CCCC1)c1cc(F)ccc1O (stereo not shown) [2-Cyclopentyl-4-(5-fluoro-2-hydroxyphenyl)-2-hydroxy-4-methylpentanoic acid (1-oxo-1,3-dihydroisobenzofuran-5-yl)amide]
CC(C)(CC(O)(CC1CCCC1)C(=O)Nc1ccc2c(c1)COC2=O)c1cc(F)ccc1O (stereo not shown) [2-Cyclopentylmethyl-4-(5-fluoro-2-hydroxyphenyl)-2-hydroxy-4-methylpentanoic acid (1-oxo-1,3-dihydroisobenzofuran-5-yl)amide]
CC(C)(CC(O)(CC(C)(C)c1ccccc1)C(=O)Nc1ccc2c(c1)COC2=O)c1ccccc1 [2-Hydroxy-4-methyl-2-(2-methyl-2-phenylpropyl)-4-phenylpentanoic acid (1-oxo-1,3-dihydroisobenzofuran-5-yl)amide]
CC(C)(CC(O)(Cc1ccccc1O)C(=O)Nc1ccc2c(c1)COC2=O)c1cc(F)ccc1O (stereo not shown) [4-(5-Fluoro-2-hydroxyphenyl)-2-hydroxy-2-(2-hydroxybenzyl)-4-methylpentanoic acid (1-oxo-1,3-dihydroisobenzofuran-5-yl)amide]
CC(c1ccccc1)C(O)(CC(C)(C)c1cc(F)ccc1O)C(=O)Nc1ccc2c(c1)COC2=O (stereo not shown) [4-(5-Fluoro-2-hydroxyphenyl)-2-hydroxy-4-methyl-2-(1-phenylethyl)pentanoic acid (1-oxo-1,3-dihydroisobenzofuran-5-yl)amide]
Cc1ccccc1CC(O)(CC(C)(C)c1cc(F)ccc1O)C(=O)Nc1ccc2c(c1)COC2=O (stereo not shown) [4-(5-Fluoro-2-hydroxyphenyl)-2-hydroxy-4-methyl-2-(2-methylbenzyl)pentanoic acid (1-oxo-1,3-dihydroisobenzofuran-5-yl)amide]
